US8519110B2, “mRNA cap analogs” (Board of Supervisors of Louisiana State University And …, priority 2008, dated 2013)

Key:
eIF4E = eIF4E (Mus musculus, UniProt P63073); experiment: Binding affinity of cap analogs to eIF4E by fluorescence titration; conditions: equilibrium association constant; for Cap analog-eIF4E affinity (KAS): Table 3; for Cap analog/eIF4E affinity (KAS): 20 °C, pH 7.2, ionic strength 150 mM
Procedure, shortened: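 Cap analogue was titrated into 0.1 or 0.2 μM eIF4E at 20.0° C, in 50 mM HEPES/KOH pH 7.2 with 0.5 mM EDTA and 1 mM DTT, ionic strength 150 mM (KCl). Fluorescence quenching was read at excitation 280 or 295 nm and emission 337 nm, corrected for dilution and inner filter. Kas is a weighted average of 3–10 titration fits.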

[1] = Chemical stability in solution and on storage; assay type: physicochemical
Method: FIG. 5 depicts the synthesis of m2^7,2′-OGppSepG. The selenophosphate (PSeO3^−3) was prepared by a modification of the method described in R. Glass et al., “Selenophosphate,” Meth. Enzymol., vol. 252, pp. 309-315 (1995). Trimethylsilyl phosphite was treated with selenium in pyridine to give trimethylsilyl selenophosphate, which was then desilylated by methanol in the presence of triethylamine to give the selenophosphate triethylammonium salt. This compound was coupled with the imidazolide derivative of 7,2′-O-dimethylguanosine 5′-monophosphate (m2^7,2′-OGMP-Im) to give 7,2′-O-dimethylguanosine 5′-O-(2-selenodiphosphate) (m2^7,2′-OGDPβSe). […] The reaction was very rapid; essentially 100% conversion of m2^7,2′-OGMP-Im into m2^7,2′-OGDPβSe was observed by RP HPLC after 15 min. […] Thus, care was taken to maintain the pH at 7 or above during purification of m2^7,2′-OGDPβSe, which allowed the product to be isolated with 80% yield after ion-exchange chromatography. The m2^7,2′-OGDPβSe was then coupled with the imidazolide derivative of GMP in the presence of excess ZnCl2. Two peaks were observed by RP HPLC, corresponding to two m2^7,2′-OGppSepG diastereomers, which were designated D1 and D2 according to their elution order. However, the coupling proceeded slowly, and complete disappearance of m2^7,2′-OGDPβSe took about two days. The extended reaction time allowed partial hydrolysis of m2^7,2′-OGDPβSe to m2^7,2′-OGMP, and only a moderate reaction yield (40% conversion by HPLC, 25% isolated). The diastereomeric mixture of m2^7,2′-OGppSepG after isolation by ion-exchange chromatography was successfully resolved into pure diastereomers by RP HPLC. The products were characterized by mass spectrometry, ^1H NMR, and ^31P NMR to confirm structures and homogeneity.

[2] = system: rabbit reticulocyte lysate system; experiment: In vitro translation efficiency of capped luciferase mRNA, method I transcripts; assay type: biochemical; conditions: for Translation efficiency in comparison with m^7GpppG-LUC mRNA, Experiment No. 2: experiment 2; for Translation efficiency in comparison with m^7GpppG-LUC mRNA, Experiment No. 3: experiment 3; for Translation efficiency in comparison with m^7GpppG-LUC mRNA, Experiment No. 4: experiment 4; for Translation efficiency in comparison with m^7GpppG-LUC mRNA, Mean: mean of experiments; for In vitro translational efficiency, method I: relative to m^7GpppG-capped luciferase mRNA = 1.0
Method: A DNA template for in vitro transcription was synthesized by PCR from the plasmid SP6p-5′UTR β-globin-LUCiferase. The template contained the SP6 promoter followed by the 5′-UTR sequence of rabbit β-globin mRNA and the entire firefly luciferase mRNA coding region. A typical in vitro transcription reaction mixture (50 μl) contained SP6 transcription buffer (Fermentas, cat. no. EP0131), 2 μg of DNA template, 2 U/μl RiboLock Ribonuclease Inhibitor (Fermentas), 2 mM each of ATP, CTP, and UTP, 0.1 mM GTP, and 1 mM dinucleotide cap analog. The reaction mixture was incubated at 37° C. for 5 min before the addition of SP6 RNA polymerase (Fermentas) to a final concentration of 2 U/μl. After 30 min of incubation at 37° C., GTP was added to a final concentration of 1 mM, and the reaction continued for an additional 90 min. The reaction mixtures were then treated with 1 U of DNase RQ1 (RNAse-free, Promega) per μg of template DNA in transcription buffer at 37° C. for 20 min. RNA transcripts were purified on DEPC-treated Sephadex G-50 spin columns (Pharmacia). The integrity of transcripts was confirmed by electrophoresis on a non-denaturating, 1% agarose gel. Concentrations were determined spectrophotometrically. The transcripts were stored at −80° C. until used.
A micrococcal nuclease-treated rabbit reticulocyte lysate system (Flexi Rabbit Reticulocyte Lysate System, Promega) was used for in vitro translation. Translation reactions were performed in 10 μl for 60 min at 30° C. A typical reaction mixture contained 40% reticulocyte lysate, the 20 “standard” amino acids (0.01 mM each), MgCl2 (1.2 mM), potassium acetate (170 mM), and mRNA (five different concentrations of each transcript, ranging from 0.25 to 4 μg/ml). Luciferase activity was measured in a luminometer (Glomax, Promega). Linear regression was used to fit the data points (luciferase activity versus concentration of mRNA transcript), and translational efficiency was defined as the slope of this line. The relative translational efficiencies of the test mRNAs were compared to that of m^7GpppG-capped luciferase mRNA, the latter being defined as 1.0.

Sequence of eIF4E (P63073 28-217 limits assumed): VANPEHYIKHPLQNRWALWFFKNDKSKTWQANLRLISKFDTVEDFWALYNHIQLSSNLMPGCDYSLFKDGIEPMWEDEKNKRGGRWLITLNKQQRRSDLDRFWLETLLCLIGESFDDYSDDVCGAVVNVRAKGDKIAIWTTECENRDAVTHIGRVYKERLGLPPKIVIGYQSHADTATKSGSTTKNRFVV

| Cap analog-eIF4E affinity (KAS) (eIF4E) | Stability in aqueous solution [1] | Cap analog/eIF4E affinity (KAS) (eIF4E) | Translation efficiency in comparison with m^7GpppG-LUC mRNA, Experiment No. 1 ([2]; experiment 1) | Translation efficiency in comparison with m^7GpppG-LUC mRNA, Experiment No. 2 [2] | Translation efficiency in comparison with m^7GpppG-LUC mRNA, Experiment No. 3 [2] | Translation efficiency in comparison with m^7GpppG-LUC mRNA, Experiment No. 4 [2] | Translation efficiency in comparison with m^7GpppG-LUC mRNA, Mean [2] | In vitro translational efficiency, method I [2] | Compound |
| --- | --- | --- | --- | --- | --- | --- | --- | --- | --- |
| 38.5 ± 0.7 μM^−1 | stable in aqueous solution | – | – | – | – | – | – | – | CO[C@@H]1[C@H](O)[C@@H](COP(=O)(O)OP(O)(=[Se])OP(=O)(O)OC[C@H]2O[C@@H](n3cnc4c(=O)[nH]c(N)nc43)[C@H](O)[C@@H]2O)O[C@H]1n1c[n+](C)c2c(=O)[nH]c(N)nc21 (single isomer, unassigned) [m2^7,2′-OGppSepG (D1), m2^7,2′-OGppSepG] |
| 19.0 ± 0.5 μM^−1 | stable in aqueous solution | – | – | – | – | – | – | – | CO[C@@H]1[C@H](O)[C@@H](COP(=O)(O)OP(O)(=[Se])OP(=O)(O)OC[C@H]2O[C@@H](n3cnc4c(=O)[nH]c(N)nc43)[C@H](O)[C@@H]2O)O[C@H]1n1c[n+](C)c2c(=O)[nH]c(N)nc21 (single isomer, unassigned) [m2^7,2′-OGppSepG (D2), m2^7,2′-OGppSepG] |
| 9.4 ± 0.4 μM^−1 | – | 9.4 ± 0.4 μM^−1 | 1.00 | 1.00 | 1.00 | 1.00 | 1.00 | 1.00 | Cn1c[n+]([C@@H]2O[C@H](COP(=O)(O)OP(=O)(O)OP(=O)(O)OC[C@H]3O[C@@H](n4cnc5c(=O)[nH]c(N)nc54)[C@H](O)[C@@H]3O)[C@@H](O)[C@H]2O)c2nc(N)[nH]c(=O)c21 [m^7GpppG, m^7G(5′)ppp(5′)G, reference compound] |
| – | – | 11.1 ± 0.2 μM^−1 | – | 2.63 | 2.91 | 2.89 | 2.81 | 2.81 ± 0.16 | m^7GppBH3pm^7G |
